# pIC50: −log10 of the molar value. Where a name gives a salt, the structure may show the parent alone.
# Target: T1, recombinant human baculovirus-expressed GST-tagged FASN (Homo sapiens, UniProt P49327)
# T1 construct: GST
# Assay: FASN enzyme activity assay, fluorescence-based detection of CoA with CPM
# Format: biochemical
# Details: 5 nM FASN, 150 μM NADPH, 10 μM acetyl-CoA, 25 μM malonyl-CoA, 90 minutes incubation; read-out: IC50 data for Additional Compounds of Formulae I-V(a): Activity
# How it was run: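 CoA product reacted with thiol-reactive CPM (diluted to 50 μM in 70% ethanol), read at 390/530 nm after 30 min. Preceding reaction: 90 min, 5 nM recombinant GST-FASN, 150 μM NADPH, 10 μM acetyl-CoA, 25 μM malonyl-CoA, pH 7.5 HEPES, 0.5% DMSO. IC50s fitted by nonlinear sigmoidal regression.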
# T1 sequence (P49327 whole entry): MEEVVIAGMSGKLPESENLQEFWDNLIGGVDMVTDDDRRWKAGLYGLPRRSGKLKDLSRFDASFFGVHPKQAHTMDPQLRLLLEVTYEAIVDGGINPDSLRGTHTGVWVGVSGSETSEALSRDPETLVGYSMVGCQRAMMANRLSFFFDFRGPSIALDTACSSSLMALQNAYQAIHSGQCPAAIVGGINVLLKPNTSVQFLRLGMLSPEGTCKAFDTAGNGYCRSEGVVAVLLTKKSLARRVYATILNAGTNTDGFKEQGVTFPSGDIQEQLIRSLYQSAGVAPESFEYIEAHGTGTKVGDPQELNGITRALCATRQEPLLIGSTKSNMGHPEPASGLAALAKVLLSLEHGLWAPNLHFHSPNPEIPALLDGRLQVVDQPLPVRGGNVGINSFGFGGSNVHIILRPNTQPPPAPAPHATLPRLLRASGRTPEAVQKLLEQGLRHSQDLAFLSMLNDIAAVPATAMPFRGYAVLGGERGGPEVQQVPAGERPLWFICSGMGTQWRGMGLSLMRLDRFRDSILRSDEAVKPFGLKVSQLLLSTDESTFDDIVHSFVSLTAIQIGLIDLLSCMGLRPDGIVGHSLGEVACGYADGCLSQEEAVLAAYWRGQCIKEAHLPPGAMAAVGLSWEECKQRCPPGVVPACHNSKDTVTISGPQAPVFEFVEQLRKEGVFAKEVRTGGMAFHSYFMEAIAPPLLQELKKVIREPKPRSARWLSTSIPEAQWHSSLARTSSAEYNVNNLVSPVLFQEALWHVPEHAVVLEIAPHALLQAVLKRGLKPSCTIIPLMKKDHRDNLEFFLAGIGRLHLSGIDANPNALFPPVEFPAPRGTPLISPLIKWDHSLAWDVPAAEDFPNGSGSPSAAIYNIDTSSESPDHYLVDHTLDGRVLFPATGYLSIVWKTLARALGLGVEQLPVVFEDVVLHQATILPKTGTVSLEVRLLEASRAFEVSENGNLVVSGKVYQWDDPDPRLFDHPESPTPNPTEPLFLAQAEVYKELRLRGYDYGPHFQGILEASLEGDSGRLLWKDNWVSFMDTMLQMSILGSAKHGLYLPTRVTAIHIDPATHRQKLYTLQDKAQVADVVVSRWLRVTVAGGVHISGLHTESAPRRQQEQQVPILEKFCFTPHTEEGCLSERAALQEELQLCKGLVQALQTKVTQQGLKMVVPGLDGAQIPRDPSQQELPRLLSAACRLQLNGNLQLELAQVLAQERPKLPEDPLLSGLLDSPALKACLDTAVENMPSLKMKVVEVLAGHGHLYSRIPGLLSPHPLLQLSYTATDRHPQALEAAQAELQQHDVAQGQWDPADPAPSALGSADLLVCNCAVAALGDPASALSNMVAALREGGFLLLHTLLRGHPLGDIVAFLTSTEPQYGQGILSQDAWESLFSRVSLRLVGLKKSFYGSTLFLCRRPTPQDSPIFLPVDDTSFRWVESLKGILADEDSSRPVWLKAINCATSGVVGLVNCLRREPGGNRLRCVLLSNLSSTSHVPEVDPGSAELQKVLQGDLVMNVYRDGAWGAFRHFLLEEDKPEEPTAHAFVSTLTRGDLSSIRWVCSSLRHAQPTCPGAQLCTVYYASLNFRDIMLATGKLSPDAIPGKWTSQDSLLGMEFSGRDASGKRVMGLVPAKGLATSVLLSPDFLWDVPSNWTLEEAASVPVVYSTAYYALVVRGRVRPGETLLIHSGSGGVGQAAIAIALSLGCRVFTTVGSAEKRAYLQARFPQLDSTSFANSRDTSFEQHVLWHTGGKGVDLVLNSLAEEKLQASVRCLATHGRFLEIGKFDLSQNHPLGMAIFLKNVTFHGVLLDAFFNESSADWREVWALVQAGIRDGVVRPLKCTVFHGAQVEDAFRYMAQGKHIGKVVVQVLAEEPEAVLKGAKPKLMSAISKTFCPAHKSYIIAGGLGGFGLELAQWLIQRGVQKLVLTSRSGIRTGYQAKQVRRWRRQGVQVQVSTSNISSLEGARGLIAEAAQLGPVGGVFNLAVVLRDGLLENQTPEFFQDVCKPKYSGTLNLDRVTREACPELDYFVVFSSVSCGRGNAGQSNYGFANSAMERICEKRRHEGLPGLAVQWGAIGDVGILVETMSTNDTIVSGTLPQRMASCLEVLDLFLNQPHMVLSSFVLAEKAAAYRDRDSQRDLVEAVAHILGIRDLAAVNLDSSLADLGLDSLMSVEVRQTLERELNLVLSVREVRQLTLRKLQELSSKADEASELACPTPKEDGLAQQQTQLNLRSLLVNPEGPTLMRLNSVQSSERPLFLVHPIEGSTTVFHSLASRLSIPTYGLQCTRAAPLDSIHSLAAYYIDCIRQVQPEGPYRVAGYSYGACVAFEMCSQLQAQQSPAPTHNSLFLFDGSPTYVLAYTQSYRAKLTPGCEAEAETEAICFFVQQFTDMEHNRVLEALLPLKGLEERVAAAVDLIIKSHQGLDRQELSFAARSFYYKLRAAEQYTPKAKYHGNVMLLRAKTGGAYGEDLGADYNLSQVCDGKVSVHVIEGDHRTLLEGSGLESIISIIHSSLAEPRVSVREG
row,pIC50,SMILES
1,5.00 to 6.00,"Cc1c(-c2ccc(OC3CCN(C(=O)NCCc4c[nH]cn4)CC3)cc2)ccc2cccnc12 [Example 548, N-[2-(1H-Imidazol-4-yl)ethyl]-4-[4-(8-methyl-7-quinolyl)phenoxy]piperidine-1-carboxamide, 2HCl]"
2,5.00 to 6.00,"Cc1c(-c2ccc(OC3CCN(C(=O)NC4CCOCC4)CC3)cc2)ccc2cccnc12 [Example 549, 4-[4-(8-Methyl-7-quinolyl)phenoxy]-N-tetrahydropyran-4-yl-piperidine-1-carboxamide, HCl]"
3,5.00 to 6.00,"Cc1c(-c2ccc(OC3CCN(C(=O)OCC(C)C)CC3)cc2)ccc2cccnc12 [Example 550, Isobutyl 4-[4-(8-methyl-7-quinolyl)phenoxy]piperidine-1-carboxylate, HCl]"
4,5.00 to 6.00,"C=CCOC(=O)N1CCC(Oc2ccc(-c3ccc4cccnc4c3C)cc2)CC1 [Example 551, Allyl 4-[4-(8-methyl-7-quinolyl)phenoxy]piperidine-1-carboxylate, HCl]"
5,5.00 to 6.00,"Cc1c(-c2ccc(OC3CCN(C(=O)NC4CCC4)CC3)cc2)ccc2cccnc12 [Example 552, N-Cyclobutyl-4-[4-(8-methyl-7-quinolyl)phenoxy]piperidine-1-carboxamide HCl]"
6,5.00 to 6.00,"Cc1c(-c2ccc(OC3CCN(C(=O)OCC4CC4)CC3)cc2)ccc2cccnc12 [Example 553, Cyclopropylmethyl 4-[4-(8-methyl-7-quinolyl)phenoxy]piperidine-1-carboxylate HCl]"
7,5.00 to 6.00,"Cc1c(-c2ccc(OC3CCN(C(=O)NO)CC3)cc2)ccc2cccnc12 [Example 554, 4-[4-(8-Methyl-7-quinolyl)phenoxy]piperidine-1-carbohydroxamic acid, HCl]"
8,5.00 to 6.00,"COCCOC(=O)N1CCC(Oc2ccc(-c3ccc4cccnc4c3C)cc2)CC1 [Example 555, 2-Methoxyethyl 4-[4-(8-methyl-7-quinolyl)phenoxy]piperidine-1-carboxylate, HCl]"
9,5.00 to 6.00,"Cc1c(-c2ccc(OC3CCN(C(=O)OC4CCOCC4)CC3)cc2)ccc2cccnc12 [Example 556, Tetrahydropyran-4-yl 4-[4-(8-methyl-7-quinolyl)phenoxy]piperidine-1-carboxylate]"
10,5.00 to 6.00,"Cc1c(-c2ccc(OC3CCN(C(=O)OC4CCCOC4)CC3)cc2)ccc2cccnc12 (centres unmarked) [Example 557, Tetrahydropyran-3-yl 4-[4-(8-methyl-7-quinolyl)phenoxy]piperidine-1-carboxylate]"
11,5.00 to 6.00,"Cc1c(-c2ccc(OC3CCN(C(=O)N4CCCCO4)CC3)cc2)ccc2cccnc12 [Example 558, [4-[4-(8-Methyl-7-quinolyl)phenoxy]-1-piperidyl]-(oxazinan-2-yl)methanone]"
12,7.00 to 9.00,"Cc1c(-c2ccc(OC3CCN(C(=O)OC4CCOC4)CC3)cc2)ccc2cccnc12 (centres unmarked) [Example 559, Tetrahydrofuran-3-yl 4-[4-(8-methyl-7-quinolyl)phenoxy]piperidine-1-carboxylate]"
13,6.00 to 7.00,"Cc1c(-c2ccc(OC3CCN(C(=O)NCC4CCC4)CC3)cc2)ccc2cccnc12 [Example 560, N-(Cyclobutylmethyl)-4-[4-(8-methyl-7-quinolyl)phenoxy]piperidine-1-carboxamide]"
14,5.00 to 6.00,"Cc1c(-c2ccc(OC3CCN(C(=O)OC4CCC4)CC3)cc2)ccc2cccnc12 [Example 561, Cyclobutyl 4-[4-(8-methyl-7-quinolyl)phenoxy]piperidine-1-carboxylate]"
15,5.00 to 6.00,"Cc1c(-c2ccc(OC3CCN(C(=O)N4CCCCCC4)CC3)cc2)ccc2cccnc12 [Example 562, Azepan-1-yl-[4-[4-(8-methyl-7-quinolyl)phenoxy]-1-piperidyl]methanone]"
16,5.00 to 6.00,"CCONC(=O)N1CCC(Oc2ccc(-c3ccc4nccn4c3Cl)cc2)CC1 [Example 573, 4-[4-(5-Chloroimidazo[1,2-a]pyridin-6-yl)phenoxy]-N-ethoxy-piperidine-1-carboxamide]"
17,5.00 to 6.00,"CCCONC(=O)N1CCC(Oc2ccc(-c3ccc4nccn4c3Cl)cc2)CC1 [Example 576, 4-[4-(5-Chloroimidazo[1,2-a]pyridin-6-yl)phenoxy]-N-propoxy-piperidine-1-carboxamide]"
